Laboratory results: patent US20220281848A1, “PYRAZOLE-SUBSTITUTED PYRROLIDINONES AS HERBICIDES” (FMC Corporation, priority 2019, published 2022)

Tested on: plants
Assay: Test D pre-emergence, other plants of Tables D1 and D3
Format: in vivo
Settings: 20 DAA; for damage to plant (100=total damage to plant; 0=no damage to plant), BIDPI / damage to plant (100=total damage to plant; 0=no damage to plant), BRAPL / damage to plant (100=total damage to plant; 0=no damage to plant), CYPES / damage to plant (100=total damage to plant; 0=no damage to plant), EPHHL / damage to plant (100=total damage to plant; 0=no damage to plant), GLXMA / damage to plant (100=total damage to plant; 0=no damage to plant), IPOHE / damage to plant (100=total damage to plant; 0=no damage to plant), SORVU: preemergent; for CHEAL damage rating / GALAP damage rating / KCHSC damage rating / LOLPE damage rating / POAAN damage rating / STEME damage rating / VERPE damage rating: pre-emergence, 100=total damage, 0=no damage
Method in brief: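 Seeds treated with herbicide safener; sown in soil; glasshouse, 16 h light, 65% humidity. Sprayed day 1 (pre) or ~day 12 (post). Spray in 0.2% v/v adjuvant. Scored 0–100 damage: 20 DAA pre, 15 d post.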

Q: For `CN1CC(c2cnn(C)c2C(F)(F)F)C(C(=O)Nc2cccc(F)c2F)C1=O` (racemic) [Compound 25], which “damage to plant (100=total damage to plant; 0=no damage to plant), BIDPI” value (rate 15) is on record?
A: 0

Q: What about the “damage to plant (100=total damage to plant; 0=no damage to plant), BIDPI” value (rate 30) of the same compound?
A: 0

Q: What about the “damage to plant (100=total damage to plant; 0=no damage to plant), BIDPI” value (rate 60) of the same compound?
A: 0

Q: What about the “damage to plant (100=total damage to plant; 0=no damage to plant), BIDPI” value (rate 130) of the same compound?
A: 0

Q: What about the “damage to plant (100=total damage to plant; 0=no damage to plant), BIDPI” value (rate 250) of the same compound?
A: 0

Q: And the “damage to plant (100=total damage to plant; 0=no damage to plant), BIDPI” value (rate 500)?
A: 0

Q: What about the “damage to plant (100=total damage to plant; 0=no damage to plant), BRAPL” value (rate 15) of the same compound?
A: 0

Q: And the “damage to plant (100=total damage to plant; 0=no damage to plant), BRAPL” value (rate 30)?
A: 0

Q: What about the “damage to plant (100=total damage to plant; 0=no damage to plant), BRAPL” value (rate 60) of the same compound?
A: 30

Q: What about the “damage to plant (100=total damage to plant; 0=no damage to plant), BRAPL” value (rate 130) of the same compound?
A: 80

Q: What about the “damage to plant (100=total damage to plant; 0=no damage to plant), BRAPL” value (rate 250) of the same compound?
A: 90

Q: And the “damage to plant (100=total damage to plant; 0=no damage to plant), BRAPL” value (rate 500)?
A: 90

Q: And the CHEAL damage rating (Rates 15)?
A: 0

Q: And the CHEAL damage rating (Rates 30)?
A: 0

Q: And the CHEAL damage rating (Rates 60)?
A: 0

Q: And the CHEAL damage rating (Rates 130)?
A: 0

Q: And the CHEAL damage rating (Rates 250)?
A: 20

Q: What about the CHEAL damage rating (Rates 500) of the same compound?
A: 50

Q: And the “damage to plant (100=total damage to plant; 0=no damage to plant), CYPES” value (rate 15)?
A: 0

Q: And the “damage to plant (100=total damage to plant; 0=no damage to plant), CYPES” value (rate 30)?
A: 0

Q: What about the “damage to plant (100=total damage to plant; 0=no damage to plant), CYPES” value (rate 60) of the same compound?
A: 0

Q: What about the “damage to plant (100=total damage to plant; 0=no damage to plant), CYPES” value (rate 130) of the same compound?
A: 0

Q: And the “damage to plant (100=total damage to plant; 0=no damage to plant), CYPES” value (rate 250)?
A: 0

Q: What about the “damage to plant (100=total damage to plant; 0=no damage to plant), CYPES” value (rate 500) of the same compound?
A: 0

Q: What about the “damage to plant (100=total damage to plant; 0=no damage to plant), EPHHL” value (rate 15) of the same compound?
A: 0

Q: What about the “damage to plant (100=total damage to plant; 0=no damage to plant), EPHHL” value (rate 30) of the same compound?
A: 0

Q: And the “damage to plant (100=total damage to plant; 0=no damage to plant), EPHHL” value (rate 60)?
A: 0

Q: What about the “damage to plant (100=total damage to plant; 0=no damage to plant), EPHHL” value (rate 130) of the same compound?
A: 0

Q: And the “damage to plant (100=total damage to plant; 0=no damage to plant), EPHHL” value (rate 250)?
A: 0

Q: And the “damage to plant (100=total damage to plant; 0=no damage to plant), EPHHL” value (rate 500)?
A: 0

Q: What about the GALAP damage rating (Rates 15) of the same compound?
A: 0

Q: And the GALAP damage rating (Rates 30)?
A: 0

Q: What about the GALAP damage rating (Rates 60) of the same compound?
A: 0

Q: What about the GALAP damage rating (Rates 130) of the same compound?
A: 0

Q: What about the GALAP damage rating (Rates 250) of the same compound?
A: 0

Q: And the GALAP damage rating (Rates 500)?
A: 0

Q: What about the “damage to plant (100=total damage to plant; 0=no damage to plant), GLXMA” value (rate 15) of the same compound?
A: 0

Q: What about the “damage to plant (100=total damage to plant; 0=no damage to plant), GLXMA” value (rate 30) of the same compound?
A: 0

Q: And the “damage to plant (100=total damage to plant; 0=no damage to plant), GLXMA” value (rate 60)?
A: 0

Q: What about the “damage to plant (100=total damage to plant; 0=no damage to plant), GLXMA” value (rate 130) of the same compound?
A: 0

Q: And the “damage to plant (100=total damage to plant; 0=no damage to plant), GLXMA” value (rate 250)?
A: 0

Q: And the “damage to plant (100=total damage to plant; 0=no damage to plant), GLXMA” value (rate 500)?
A: 0

Q: And the “damage to plant (100=total damage to plant; 0=no damage to plant), IPOHE” value (rate 15)?
A: 0

Q: What about the “damage to plant (100=total damage to plant; 0=no damage to plant), IPOHE” value (rate 30) of the same compound?
A: 0

Q: What about the “damage to plant (100=total damage to plant; 0=no damage to plant), IPOHE” value (rate 60) of the same compound?
A: 0

Q: What about the “damage to plant (100=total damage to plant; 0=no damage to plant), IPOHE” value (rate 130) of the same compound?
A: 0

Q: What about the “damage to plant (100=total damage to plant; 0=no damage to plant), IPOHE” value (rate 250) of the same compound?
A: 0

Q: What about the “damage to plant (100=total damage to plant; 0=no damage to plant), IPOHE” value (rate 500) of the same compound?
A: 0

Q: And the KCHSC damage rating (Rates 15)?
A: 0

Q: And the KCHSC damage rating (Rates 30)?
A: 0

Q: What about the KCHSC damage rating (Rates 60) of the same compound?
A: 0

Q: What about the KCHSC damage rating (Rates 130) of the same compound?
A: 0

Q: And the KCHSC damage rating (Rates 250)?
A: 0

Q: What about the KCHSC damage rating (Rates 500) of the same compound?
A: 0

Q: What about the LOLPE damage rating (Rates 15) of the same compound?
A: 0

Q: What about the LOLPE damage rating (Rates 30) of the same compound?
A: 0

Q: What about the LOLPE damage rating (Rates 60) of the same compound?
A: 0

Q: And the LOLPE damage rating (Rates 130)?
A: 0

Q: And the LOLPE damage rating (Rates 250)?
A: 0

Q: What about the LOLPE damage rating (Rates 500) of the same compound?
A: 0

Q: What about the POAAN damage rating (Rates 15) of the same compound?
A: 0

Q: And the POAAN damage rating (Rates 30)?
A: 0

Q: And the POAAN damage rating (Rates 60)?
A: 0

Q: What about the POAAN damage rating (Rates 130) of the same compound?
A: 0

Q: What about the POAAN damage rating (Rates 250) of the same compound?
A: 0

Q: And the POAAN damage rating (Rates 500)?
A: 0

Q: And the “damage to plant (100=total damage to plant; 0=no damage to plant), SORVU” value (rate 15)?
A: 0

Q: What about the “damage to plant (100=total damage to plant; 0=no damage to plant), SORVU” value (rate 30) of the same compound?
A: 0

Q: What about the “damage to plant (100=total damage to plant; 0=no damage to plant), SORVU” value (rate 60) of the same compound?
A: 0

Q: What about the “damage to plant (100=total damage to plant; 0=no damage to plant), SORVU” value (rate 130) of the same compound?
A: 0

Q: And the “damage to plant (100=total damage to plant; 0=no damage to plant), SORVU” value (rate 250)?
A: 0

Q: And the “damage to plant (100=total damage to plant; 0=no damage to plant), SORVU” value (rate 500)?
A: 0

Q: And the STEME damage rating (Rates 15)?
A: 0

Q: And the STEME damage rating (Rates 30)?
A: 0

Q: And the STEME damage rating (Rates 60)?
A: 0

Q: And the STEME damage rating (Rates 130)?
A: 0

Q: And the STEME damage rating (Rates 250)?
A: 0

Q: And the STEME damage rating (Rates 500)?
A: 50

Q: And the VERPE damage rating (Rates 15)?
A: 0

Q: What about the VERPE damage rating (Rates 30) of the same compound?
A: 0

Q: What about the VERPE damage rating (Rates 60) of the same compound?
A: 0

Q: And the VERPE damage rating (Rates 130)?
A: 0

Q: What about the VERPE damage rating (Rates 250) of the same compound?
A: 0

Q: And the VERPE damage rating (Rates 500)?
A: 10
